Results from ChEMBL document CHEMBL3045033, “Synthesis of new potential anticancer agents based on 4-thiazolidinone and oleanane scaffolds” (Med Chem Res, 2012).
“And” between values parts separate entries of the source, which are not always exact repeats. Identical values can stand only once.

Experiments:
Type in all cases: functional
HCT-15 = experiment: Cytotoxicity against Homo sapiens (human) HCT15 cells at 10^-4 to 10^-8 M after 48 hr by SRB assay; details: HCT-15, 48 h, read-out: pTGI (converted)
HCC 2998 = experiment: Cytotoxicity against Homo sapiens (human) HCC2998 cells at 10^-4 to 10^-8 M after 48 hr by SRB assay; details: HCC 2998, 48 h, read-out: pTGI (converted)
COLO 205 = experiment: Cytotoxicity against Homo sapiens (human) COLO205 cells at 10^-4 to 10^-8 M after 48 hr by SRB assay; details: COLO 205, 48 h, read-out: pTGI (converted)
NCI-H460 = experiment: Cytotoxicity against Homo sapiens (human) NCI-H460 cells at 10^-4 to 10^-8 M after 48 hr by SRB assay; details: NCI-H460, 48 h, read-out: pTGI (converted)
NCI-H322M = experiment: Cytotoxicity against Homo sapiens (human) NCI-H322M cells at 10^-4 to 10^-8 M after 48 hr by SRB assay; details: read-out: pTGI (converted)
NCI-H23 = experiment: Cytotoxicity against Homo sapiens (human) NCI-H23 cells at 10^-4 to 10^-8 M after 48 hr by SRB assay; details: NCI-H23, 48 h, read-out: pTGI (converted)
NCI-H226 = experiment: Cytotoxicity against Homo sapiens (human) NCI-H226 cells at 10^-4 to 10^-8 M after 48 hr by SRB assay; details: NCI-H226, 48 h, read-out: pTGI (converted)
HOP-62 = experiment: Cytotoxicity against Homo sapiens (human) HOP62 cells at 10^-4 to 10^-8 M after 48 hr by SRB assay; details: HOP-62, 48 h, read-out: pTGI (converted)
A549 = experiment: Cytotoxicity against Homo sapiens (human) A549 cells at 10^-4 to 10^-8 M after 48 hr by SRB assay; details: A549, 48 h, read-out: pTGI (converted)
SR [1] = experiment: Cytotoxicity against Homo sapiens (human) SR cells at 10^-4 to 10^-8 M after 48 hr by SRB assay; details: read-out: pTGI (converted)
HL-60(TB) = experiment: Cytotoxicity against Homo sapiens (human) HL-60(TB) cells at 10^-4 to 10^-8 M after 48 hr by SRB assay; details: HL-60, 48 h, read-out: pTGI (converted)
UO-31 [2] = experiment: Cytotoxicity against Homo sapiens (human) UO31 cells after 48 hr by SRB assay
A498 [3] = experiment: Cytotoxicity against Homo sapiens (human) A498 cells after 48 hr by SRB assay
SK-OV-3 = experiment: Cytotoxicity against Homo sapiens (human) SKOV3 cells after 48 hr by SRB assay
OVCAR-5 [4] = experiment: Cytotoxicity against Homo sapiens (human) OVCAR5 cells after 48 hr by SRB assay
OVCAR-3 = experiment: Cytotoxicity against Homo sapiens (human) OVCAR3 cells after 48 hr by SRB assay
UACC-257 = experiment: Cytotoxicity against Homo sapiens (human) UACC257 cells after 48 hr by SRB assay
SK-MEL-5 [5] = experiment: Cytotoxicity against Homo sapiens (human) SK-MEL-5 cells after 48 hr by SRB assay
DU-145 = experiment: Cytotoxicity against Homo sapiens (human) DU145 cells at 10^-4 to 10^-8 M after 48 hr by SRB assay; details: DU-145, 48 h, read-out: pTGI (converted)
SN12C = experiment: Cytotoxicity against Homo sapiens (human) SN12C cells at 10^-4 to 10^-8 M after 48 hr by SRB assay; details: read-out: pTGI (converted)
TK-10 = experiment: Cytotoxicity against Homo sapiens (human) TK10 cells at 10^-4 to 10^-8 M after 48 hr by SRB assay; details: TK-10, 48 h, read-out: pTGI (converted)
UO-31 [6] = experiment: Cytotoxicity against Homo sapiens (human) UO31 cells at 10^-4 to 10^-8 M after 48 hr by SRB assay; details: UO-31, 48 h, read-out: pTGI (converted)
CAKI-1 = experiment: Cytotoxicity against Homo sapiens (human) Caki1 cells at 10^-4 to 10^-8 M after 48 hr by SRB assay; details: CAKI-1, 48 h, read-out: pTGI (converted)
A498 [7] = experiment: Cytotoxicity against Homo sapiens (human) A498 cells at 10^-4 to 10^-8 M after 48 hr by SRB assay; details: A498, 48 h, read-out: pTGI (converted)
786-0 = experiment: Cytotoxicity against Homo sapiens (human) 786-0 cells at 10^-4 to 10^-8 M after 48 hr by SRB assay; details: 786-0, 48 h, read-out: pTGI (converted)
OVCAR-5 [8] = experiment: Cytotoxicity against Homo sapiens (human) OVCAR5 cells at 10^-4 to 10^-8 M after 48 hr by SRB assay; details: OVCAR-5, 48 h, read-out: pTGI (converted)
OVCAR-8 = experiment: Cytotoxicity against Homo sapiens (human) OVCAR8 cells at 10^-4 to 10^-8 M after 48 hr by SRB assay; details: OVCAR-8, 48 h, read-out: pTGI (converted)
SK-MEL-5 [9] = experiment: Cytotoxicity against Homo sapiens (human) SK-MEL-5 cells at 10^-4 to 10^-8 M after 48 hr by SRB assay; details: SK-MEL-5, 48 h, read-out: pTGI (converted)
SK-MEL-28 [10] = experiment: Cytotoxicity against Homo sapiens (human) SK-MEL-28 cells at 10^-4 to 10^-8 M after 48 hr by SRB assay; details: SK-MEL-28, 48 h, read-out: pTGI (converted)
M14 = experiment: Cytotoxicity against Homo sapiens (human) M14 cells at 10^-4 to 10^-8 M after 48 hr by SRB assay; details: M14, 48 h, read-out: pTGI (converted)
LOX IMVI = experiment: Cytotoxicity against Homo sapiens (human) LOXIMVI cells at 10^-4 to 10^-8 M after 48 hr by SRB assay; details: read-out: pTGI (converted)
SK-MEL-28 [11] = experiment: Cytotoxicity against Homo sapiens (human) SK-MEL-28 cells after 48 hr by SRB assay
SNB-19 = experiment: Cytotoxicity against Homo sapiens (human) SNB19 cells after 48 hr by SRB assay
SW-620 = experiment: Cytotoxicity against Homo sapiens (human) SW620 cells after 48 hr by SRB assay
HT-29 = experiment: Cytotoxicity against Homo sapiens (human) HT-29 cells after 48 hr by SRB assay
EKVX = experiment: Cytotoxicity against Homo sapiens (human) EKVX cells after 48 hr by SRB assay
SR [12] = experiment: Cytotoxicity against Homo sapiens (human) SR cells after 48 hr by SRB assay
CCRF-CEM = experiment: Cytotoxicity against Homo sapiens (human) CCRF-CEM cells after 48 hr by SRB assay

| Structure (SMILES) | TGI (HCT-15) [µM] | TGI (HCC 2998) [µM] | TGI (COLO 205) [µM] | TGI (NCI-H460) [µM] | TGI (NCI-H322M) [µM] | TGI (NCI-H23) [µM] | TGI (NCI-H226) [µM] | TGI (HOP-62) [µM] | TGI (A549) [µM] | TGI (SR [1]) [µM] | TGI (HL-60(TB)) [µM] | TGI (DU-145) [µM] | TGI (SN12C) [µM] | TGI (TK-10) [µM] | TGI (UO-31 [6]) [µM] | TGI (CAKI-1) [µM] | TGI (A498 [7]) [µM] | TGI (786-0) [µM] | TGI (OVCAR-5 [8]) [µM] | TGI (OVCAR-8) [µM] | further results |
| --- | --- | --- | --- | --- | --- | --- | --- | --- | --- | --- | --- | --- | --- | --- | --- | --- | --- | --- | --- | --- | --- |
| COC(=O)[C@]12CCC(C)(C)C[C@H]1C1=CC[C@@H]3[C@@]4(C)CC/C(=N\O)C(C)(C)[C@@H]4CC[C@@]3(C)[C@]1(C)CC2 | 55 | 42.7 | 57.5 | 51.3 | > 100 | 38 | 66.1 | 44.7 | > 100 | 55 | > 100 | 42.7 | 42.7 | 97.7 | 45.7 | 47.9 | 63.1 | 34.7 | 55 | > 100 | GI50 (UO-31 [2]; Homo sapiens, UO-31, 48 h): 22.4 µM; GI50 (A498 [3]; Homo sapiens, A498, 48 h): 28.2 µM; GI50 (SK-OV-3; Homo sapiens, SK-OV-3, 48 h): 40.7 µM; GI50 (OVCAR-5 [4]; Homo sapiens, OVCAR-5, 48 h): 24.5 µM; GI50 (OVCAR-3; Homo sapiens, OVCAR-3, 48 h): 18.6 µM; GI50 (UACC-257; Homo sapiens, UACC-257, 48 h): 33.1 µM; GI50 (SK-MEL-5 [5]; Homo sapiens, SK-MEL-5, 48 h): 21.4 µM; TGI (SK-MEL-5 [9]): 63.1 µM; TGI (SK-MEL-28 [10]): 66.1 µM; TGI (M14): 57.5 µM; TGI (LOX IMVI): 39.8 µM; GI50 (SK-MEL-28 [11]; Homo sapiens, SK-MEL-28, 48 h): 24.5 µM; GI50 (SNB-19; Homo sapiens, SNB-19, 48 h): 25.7 µM; GI50 (SW-620; Homo sapiens, SW-620, 48 h): 20 µM; GI50 (HT-29; Homo sapiens, HT-29, 48 h): 22.9 µM; GI50 (EKVX; Homo sapiens, EKVX, 48 h): 28.2 µM; GI50 (SR [12]; Homo sapiens, SR, 48 h): 26.9 µM; GI50 (CCRF-CEM): 28.2 µM |
| CC1(C)CC[C@@]23CC[C@]4(C)[C@@](OC2=O)([C@@H]3C1)[C@@H](Br)C[C@@H]1[C@@]2(C)CC/C(=N\O)C(C)(C)[C@@H]2CC[C@]14C | > 100 | > 100 | > 100 | > 100 | > 100 | > 100 | > 100 | > 100 | > 100 | 7.94 | > 100 | > 100 | > 100 | 52.5 | > 100 | > 100 | > 100 | > 100 | > 100 | 53.7 | GI50 (UO-31 [2]; Homo sapiens, UO-31, 48 h): 40.7 µM; GI50 (A498 [3]; Homo sapiens, A498, 48 h): 49 µM; GI50 (SK-OV-3; Homo sapiens, SK-OV-3, 48 h): 30.9 µM; GI50 (OVCAR-5 [4]; Homo sapiens, OVCAR-5, 48 h): > 100 µM; GI50 (OVCAR-3; Homo sapiens, OVCAR-3, 48 h): 11.5 µM; GI50 (UACC-257; Homo sapiens, UACC-257, 48 h): 14.8 µM; GI50 (SK-MEL-5 [5]; Homo sapiens, SK-MEL-5, 48 h): 26.3 µM; TGI (SK-MEL-5 [9]): > 100 µM; TGI (SK-MEL-28 [10]): > 100 µM; TGI (M14): > 100 µM; TGI (LOX IMVI): > 100 µM; GI50 (SK-MEL-28 [11]; Homo sapiens, SK-MEL-28, 48 h): 43.7 µM; GI50 (SNB-19; Homo sapiens, SNB-19, 48 h): 53.7 µM; GI50 (SW-620; Homo sapiens, SW-620, 48 h): 6.76 µM; GI50 (HT-29; Homo sapiens, HT-29, 48 h): 17.8 µM; GI50 (EKVX; Homo sapiens, EKVX, 48 h): 91.2 µM; GI50 (SR [12]; Homo sapiens, SR, 48 h): 2.14 µM; GI50 (CCRF-CEM): 17.4 µM |
| COC(=O)[C@]12CCC(C)(C)C[C@H]1C1=CC[C@@H]3[C@@]4(C)CC/C(=N\OC(=O)/C=C5/SC(=O)NC5=O)C(C)(C)[C@@H]4CC[C@@]3(C)[C@]1(C)CC2 | 11 | 12.3 | 5.37 | 9.55 | 32.4 | 12.3 | 30.9 | 36.3 | 17.8 | 3.89 | 5.37 | 17 | 18.6 | 8.13 | 2.95 | 16.2 | 5.75 | 11.5 | 33.9 | 15.1 | GI50 (UO-31 [2]): 5.75 µM and 1.48 µM; GI50 (A498 [3]): 17.8 µM and 2.57 µM; GI50 (SK-OV-3): 61.7 µM and 20 µM; GI50 (OVCAR-5 [4]): 60.3 µM and 18.6 µM; GI50 (OVCAR-3): 6.31 µM and 1.91 µM; GI50 (UACC-257): 51.3 µM and 11.5 µM; GI50 (SK-MEL-5 [5]): 43.7 µM and 5.25 µM; TGI (SK-MEL-5 [9]): 17.8 µM; TGI (SK-MEL-28 [10]): 3.8 µM; TGI (M14): 5.13 µM; TGI (LOX IMVI): 3.09 µM; GI50 (SK-MEL-28 [11]): 7.08 µM and 2.04 µM; GI50 (SNB-19): 56.2 µM and 12.3 µM; GI50 (SW-620): 7.59 µM and 2 µM; GI50 (HT-29): 15.8 µM and 2.24 µM; GI50 (EKVX): 56.2 µM and 6.76 µM; GI50 (SR [12]): 8.91 µM and 1.7 µM; GI50 (CCRF-CEM): 2.45 µM; LC50 (CCRF-CEM): 37.2 µM |
